Measurements from ChEMBL document CHEMBL1629412, “Cyclic peptide inhibitors of HIV-1 integrase derived from the LEDGF/p75 protein” (Bioorg Med Chem, 2010).
The source made the active and inactive calls. No cut-off for these calls is given here. Numbered stars: 1 amine (or outer) side, 2 acyl side, 3 side chain; on linkers, the order of the positions; unused ones are H or OH. Bridge positions count the residues as written; N and C are the ends. Square brackets hold non-standard residues; d marks the D form. Peptide text beside a SMILES is read from it. X2 = O=C(c1ccccc1-c1c2ccc(=O)cc-2oc2cc(O)ccc12)N(CCC(=O)[*:1])C(=O)[*:2]; X1 = O=C(c1ccccc1-c1c2ccc(=O)cc-2oc2cc(O)ccc12)N(CC(=O)[*:1])C(=O)[*:2]; N(6-aminohexyl)Gly = O=C(CN(CCCCCCN[*:3])[*:1])[*:2]; NGly(3-aminopropyl) = O=C(CN(CCCN[*:3])[*:1])[*:2]; N(2-Aminoethyl)Gly = O=C(CN(CCN[*:3])[*:1])[*:2]; Nlys = NCCCCNCC(=O)O

Columns and labels:
[1] = molecular target: Human immunodeficiency virus type 1 integrase (Human immunodeficiency virus 1) (UniProt Q7ZJM1); assay: Binding affinity to HIV-1 Integrase by FRET assay
Human immunodeficiency virus type 1 integrase (Human immunodeficiency virus 1), sequence (Q7ZJM1 as listed by the source): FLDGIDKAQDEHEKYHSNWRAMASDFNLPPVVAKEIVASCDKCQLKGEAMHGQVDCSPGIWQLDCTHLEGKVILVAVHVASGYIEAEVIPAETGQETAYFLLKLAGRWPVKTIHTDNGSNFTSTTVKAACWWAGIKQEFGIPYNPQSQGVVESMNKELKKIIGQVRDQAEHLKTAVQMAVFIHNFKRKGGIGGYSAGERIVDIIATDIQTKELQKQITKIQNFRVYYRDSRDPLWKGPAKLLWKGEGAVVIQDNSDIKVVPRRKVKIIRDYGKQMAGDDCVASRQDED

[2] = molecular target: Human immunodeficiency virus type 1 integrase (Human immunodeficiency virus 1) (UniProt Q7ZJM1); assay: Inhibition of HIV-1 Integrase; conditions: concentration not given here
[3] = Chemical stability of the compound in presence of trypsin and chymotrypsin mixture at 1 mM after 30 mins by MALDI-TOF MS; type: physicochemical; conditions: isolated protein, 0.5 h, 1000 µM
[4] = molecular target: Human immunodeficiency virus type 1 integrase (Human immunodeficiency virus 1) (UniProt Q7ZJM1); assay: Inhibition of HIV-1 Integrase at 1:50 protein/compound molar ratio; conditions: concentration not given here
[5] = system: Human immunodeficiency virus 1; assay: Antiviral activity against HIV1 infected in human H9 cells assessed as extracellular release of viral protein p24 at 12.5 uM after 8 days; type: functional, organism-based
[6] = system: Human immunodeficiency virus 1; assay: Antiviral activity against HIV1 infected in human H9 cells assessed as extracellular release of viral protein p24 at 12.5 uM added to the medium every 2 days; type: functional
[7] = system: Human immunodeficiency virus 1; assay: Antiviral activity against HIV1 infected in human MAGI cells assessed as Tat-mediated reporter gene expression; type: functional, organism-based
[8] = Chemical stability of the compound in presence of trypsin and chymotrypsin mixture at 1 mM after 150 mins by MALDI-TOF MS; type: physicochemical; conditions: isolated protein, 2.5 h, 1000 µM
[9] = system: Human immunodeficiency virus 1; assay: Antiviral activity against HIV1 infected in human H9 cells assessed as extracellular release of viral protein p24 at 12.5 uM added to the medium every 2 days measured after 8 days; type: functional; conditions: Human immunodeficiency virus 1, H9

Compound	Activity [1] [µM]	inhibition [4] [%]	Activity [7]	other results
H-WNSLKIDNLDV-OH	5.1	83	Dose-dependent effect	inhibition [2]: 85%; Stability [3]: Unstable; Activity [5]: inactive; Activity [6]: Active
CC[C@H](C)[C@@H]1NC(=O)[C@H](CCCCN)NC(=O)[C@H](CC(C)C)NC(=O)[C@H](CO)NC(=O)[C@H](CC(N)=O)NC(=O)[C@H](Cc2c[nH]c3ccccc23)NC(=O)CCN(C(=O)c2ccccc2-c2c3ccc(=O)cc-3oc3cc(O)ccc23)C(=O)NCCCN(CC(N)=O)C(=O)[C@H](C(C)C)NC(=O)[C@H](CC(=O)O)NC(=O)[C@H](CC(C)C)NC(=O)[C@H](CC(N)=O)NC(=O)[C@H](CC(=O)O)NC1=O (WNSLKIDNLDV[NGly(3-aminopropyl)]-NH2; linker N-12 via X2)	4	19	–	–
CC[C@H](C)[C@@H]1NC(=O)[C@H](CCCCN)NC(=O)[C@H](CC(C)C)NC(=O)[C@H](CO)NC(=O)[C@H](CC(N)=O)NC(=O)[C@H](Cc2c[nH]c3ccccc23)NC(=O)CN(C(=O)c2ccccc2-c2c3ccc(=O)cc-3oc3cc(O)ccc23)C(=O)NCCCCN(CC(N)=O)C(=O)[C@H](C(C)C)NC(=O)[C@H](CC(=O)O)NC(=O)[C@H](CC(C)C)NC(=O)[C@H](CC(N)=O)NC(=O)[C@H](CC(=O)O)NC1=O (WNSLKIDNLDV[Nlys]-NH2; linker N-12 via X1)	5	90	Dose-dependent effect	Stability [3]: Stable; Stability [8]: Unstable; inhibition at 12.5 µM [9]: > 90%; inhibition at 12.5 µM ([6]; Human immunodeficiency virus 1, H9, 48 h): 80%
CC[C@H](C)[C@@H]1NC(=O)[C@H](CCCCN)NC(=O)[C@H](CC(C)C)NC(=O)[C@H](CO)NC(=O)[C@H](CC(N)=O)NC(=O)[C@H](Cc2c[nH]c3ccccc23)NC(=O)CN(C(=O)c2ccccc2-c2c3ccc(=O)cc-3oc3cc(O)ccc23)C(=O)NCCCCCCN(CC(N)=O)C(=O)[C@H](C(C)C)NC(=O)[C@H](CC(=O)O)NC(=O)[C@H](CC(C)C)NC(=O)[C@H](CC(N)=O)NC(=O)[C@H](CC(=O)O)NC1=O (WNSLKIDNLDV[N(6-aminohexyl)Gly]-NH2; linker N-12 via X1)	3.3	48	inactive	–
CC[C@H](C)[C@@H]1NC(=O)[C@H](CCCCN)NC(=O)[C@H](CC(C)C)NC(=O)[C@H](CO)NC(=O)[C@H](CC(N)=O)NC(=O)[C@H](Cc2c[nH]c3ccccc23)NC(=O)CN(C(=O)c2ccccc2-c2c3ccc(=O)cc-3oc3cc(O)ccc23)C(=O)NCCN(CC(N)=O)C(=O)[C@H](C(C)C)NC(=O)[C@H](CC(=O)O)NC(=O)[C@H](CC(C)C)NC(=O)[C@H](CC(N)=O)NC(=O)[C@H](CC(=O)O)NC1=O (WNSLKIDNLDV[N(2-Aminoethyl)Gly]-NH2; linker N-12 via X1)	5.2	51	–	–
CC[C@H](C)[C@@H]1NC(=O)[C@H](CCCCN)NC(=O)[C@H](CC(C)C)NC(=O)[C@H](CO)NC(=O)[C@H](CC(N)=O)NC(=O)[C@H](Cc2c[nH]c3ccccc23)NC(=O)CCN(C(=O)c2ccccc2-c2c3ccc(=O)cc-3oc3cc(O)ccc23)C(=O)NCCCCCCN(CC(N)=O)C(=O)[C@H](C(C)C)NC(=O)[C@H](CC(=O)O)NC(=O)[C@H](CC(C)C)NC(=O)[C@H](CC(N)=O)NC(=O)[C@H](CC(=O)O)NC1=O (WNSLKIDNLDV[N(6-aminohexyl)Gly]-NH2; linker N-12 via X2)	3.8	48	–	–
CC[C@H](C)[C@@H]1NC(=O)[C@H](CCCCN)NC(=O)[C@H](CC(C)C)NC(=O)[C@H](CO)NC(=O)[C@H](CC(N)=O)NC(=O)[C@H](Cc2c[nH]c3ccccc23)NC(=O)CCN(C(=O)c2ccccc2-c2c3ccc(=O)cc-3oc3cc(O)ccc23)C(=O)NCCCCN(CC(N)=O)C(=O)[C@H](C(C)C)NC(=O)[C@H](CC(=O)O)NC(=O)[C@H](CC(C)C)NC(=O)[C@H](CC(N)=O)NC(=O)[C@H](CC(=O)O)NC1=O (WNSLKIDNLDV[Nlys]-NH2; linker N-12 via X2)	3.1	65	–	–
CC[C@H](C)[C@@H]1NC(=O)[C@H](CCCCN)NC(=O)[C@H](CC(C)C)NC(=O)[C@H](CO)NC(=O)[C@H](CC(N)=O)NC(=O)[C@H](Cc2c[nH]c3ccccc23)NC(=O)CN(C(=O)c2ccccc2-c2c3ccc(=O)cc-3oc3cc(O)ccc23)C(=O)NCCCN(CC(N)=O)C(=O)[C@H](C(C)C)NC(=O)[C@H](CC(=O)O)NC(=O)[C@H](CC(C)C)NC(=O)[C@H](CC(N)=O)NC(=O)[C@H](CC(=O)O)NC1=O (WNSLKIDNLDV[NGly(3-aminopropyl)]-NH2; linker N-12 via X1)	6.5	44	–	–
CC[C@H](C)[C@@H]1NC(=O)[C@H](CCCCN)NC(=O)[C@H](CC(C)C)NC(=O)[C@H](CO)NC(=O)[C@H](CC(N)=O)NC(=O)[C@H](Cc2c[nH]c3ccccc23)NC(=O)CCN(C(=O)c2ccccc2-c2c3ccc(=O)cc-3oc3cc(O)ccc23)C(=O)NCCN(CC(N)=O)C(=O)[C@H](C(C)C)NC(=O)[C@H](CC(=O)O)NC(=O)[C@H](CC(C)C)NC(=O)[C@H](CC(N)=O)NC(=O)[C@H](CC(=O)O)NC1=O (WNSLKIDNLDV[N(2-Aminoethyl)Gly]-NH2; linker N-12 via X2)	6.3	54	–	–
